Where two headings read alike, the source gives them in different places.
Assays:
HPV16 pseudovirus = test: Luciferase assay: HPV16 pseudovirus with renilla luciferase reporter (HPV16wpA-RL); conditions: renilla luciferase reporter behind HPV16 promoter
Experimental: The protocol for the secondary screen was identical to that of the primary screen with the exception that all volumes were scaled up by a factor of four. RL activity was measured using the Renilla Luciferase Assay System (Promega).

in vitro = conditions: human
HPV16 pseudoviruses = test: microbe, parasite or virus in culture; format: cell-based; conditions: Human papillomavirus 16, HEK-293T, 48 h
Outline: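 Viability was read by CellTiter Glo luminescence on the same wells used for the SEAP infection read-out, after 48 hrs further incubation.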

[1] = read-out: Infectivity (SEAP Activity), 3 μM HTS standard concentration, 293T cells, 48 hrs
[2] = read-out: Infectivity vs. viability, 3 μM HTS standard concentration, ratio infectivity/viability
[3] = read-out: Primary HTS SEAP vs Viability, Table 2, first pair of columns (c2)
[4] = read-out: Primary HTS SEAP vs Viability, Table 2, second pair of columns (c4)
[5] = Primary HTS Viability % Average

Compound	Luciferase assay RL % Average (HPV16 pseudovirus) [%]	viability at 52 h, 3 μM (in vitro; Viability (CelTiter Glow)) [%]	activity at 3 µM (HPV16 pseudoviruses; [1]) [%]	activity at 3 µM (HPV16 pseudoviruses; [2]) [%]	activity at 3 µM (HPV16 pseudoviruses; [3]) [%]	activity at 3 µM (HPV16 pseudoviruses; [4]) [%]	viability at 52 h, 3 μM (in vitro; [5]) [%]
Cc1cc(O)n2c(nc3ccccc32)c1C(=O)O [Compound 2, 1-hydroxy-3-methylpyrido[1,2-a]benzimidazole-4-carboxylic acid]	75.09	101	19.7	19.6	13.5	25.9	–
Cc1nc2ccccn2c1C(=O)NC(C)c1ccccc1 (stereo not shown) [Compound 3, 2-methyl-N-(1-phenylethyl)imidazo[1,2-a]pyridine-3-carboxamide]	71.67	103	20.8	20.3	18.7	23	105
Cc1ccccc1C(=O)N1CC(C)CC(C)C1 (stereo not shown) [Compound 5, 3,5-dimethyl-1-(2-methylbenzoyl)piperidine]	102.39	108	22.9	21.2	29.5	16.2	102
CCN1C(=O)c2cccc3c(NC(=O)c4ccc(S(=O)(=O)N(C)C)cc4)ccc1c23 [Compound 6, 4-[(dimethylamino)sulfonyl]-N-(1-ethyl-2-oxo-1,2-dihydrobenzo[cd]indol-6-yl)benzamide]	71.67	101	26.8	26.6	24.4	29.3	–
Cc1ccccc1OCCc1c(C)n[nH]c1C [Compound 7, 3,5-dimethyl-4-[2-(2-methylphenoxy)ethyl]-1H-pyrazole]	68.26	92.9	36.9	39.7	32	41.8	–
O=C(N(c1cccc(C(F)(F)F)c1)C1C=CS(=O)(=O)C1)C(F)(F)F (stereo not shown) [Compound 8, N-(1,1-dioxido-2,3-dihydro-3-thienyl)-2,2,2-trifluoro-N-[3-(trifluoromethyl)phenyl]acetamide]	177.47	94.4	27.7	29.4	37.3	18.1	96.4
CN1C(=O)C(c2c[nH]c3ccccc23)(c2c[nH]c3ccccc23)c2ccccc21 [Compound 10, 1′-methyl-1H,1″H-3,3′:3′,3″-terindol-2′(1′H)-one]	30.72	105	38.8	37	34.4	43.2	–
O=C1NC(=S)SC1=Cc1ccc(Oc2ccc([N+](=O)[O-])cn2)cc1 [Compound 12, 5-{4-[(5-nitro-2-pyridinyl)oxy]benzylidene)-2-thioxo-1,3-thiazolidin-4-one]	105.80	132	28.3	21.5	39.4	17.2	–
O=S1(=O)C=CC(Nc2cccc(C(F)(F)F)c2)C1 (stereo not shown) [Compound 16, (1,1-dioxido-2,3-dihydro-3-thienyl)[3-(trifluoromethyl)phenyl]amine]	146.76	92.9	28.4	30.6	36.1	20.6	98.2
COc1cccc(NC(=O)c2ccc(C)c([N+](=O)[O-])c2)c1 [Compound 17, N-(3-methoxyphenyl)-4-methyl-3-nitrobenzamide]	92.15	86.8	43	49.6	32.9	53.2	–

From US9949980B2, “Drugs to prevent HPV infection” (Wisconsin Alumni Research Foundation, priority 2008, dated 2018)
